# Source: patent US10272081B2, “SHIP1 modulators and methods related thereto” (Aquinox Pharmaceuticals (Canada) Inc., priority 2013, dated 2019)
# Biological target: T1, His-hSHIP1 enzyme (Homo sapiens, UniProt Q92835)
# T1 construct: His
# T1 sequence (Q92835 1-1189): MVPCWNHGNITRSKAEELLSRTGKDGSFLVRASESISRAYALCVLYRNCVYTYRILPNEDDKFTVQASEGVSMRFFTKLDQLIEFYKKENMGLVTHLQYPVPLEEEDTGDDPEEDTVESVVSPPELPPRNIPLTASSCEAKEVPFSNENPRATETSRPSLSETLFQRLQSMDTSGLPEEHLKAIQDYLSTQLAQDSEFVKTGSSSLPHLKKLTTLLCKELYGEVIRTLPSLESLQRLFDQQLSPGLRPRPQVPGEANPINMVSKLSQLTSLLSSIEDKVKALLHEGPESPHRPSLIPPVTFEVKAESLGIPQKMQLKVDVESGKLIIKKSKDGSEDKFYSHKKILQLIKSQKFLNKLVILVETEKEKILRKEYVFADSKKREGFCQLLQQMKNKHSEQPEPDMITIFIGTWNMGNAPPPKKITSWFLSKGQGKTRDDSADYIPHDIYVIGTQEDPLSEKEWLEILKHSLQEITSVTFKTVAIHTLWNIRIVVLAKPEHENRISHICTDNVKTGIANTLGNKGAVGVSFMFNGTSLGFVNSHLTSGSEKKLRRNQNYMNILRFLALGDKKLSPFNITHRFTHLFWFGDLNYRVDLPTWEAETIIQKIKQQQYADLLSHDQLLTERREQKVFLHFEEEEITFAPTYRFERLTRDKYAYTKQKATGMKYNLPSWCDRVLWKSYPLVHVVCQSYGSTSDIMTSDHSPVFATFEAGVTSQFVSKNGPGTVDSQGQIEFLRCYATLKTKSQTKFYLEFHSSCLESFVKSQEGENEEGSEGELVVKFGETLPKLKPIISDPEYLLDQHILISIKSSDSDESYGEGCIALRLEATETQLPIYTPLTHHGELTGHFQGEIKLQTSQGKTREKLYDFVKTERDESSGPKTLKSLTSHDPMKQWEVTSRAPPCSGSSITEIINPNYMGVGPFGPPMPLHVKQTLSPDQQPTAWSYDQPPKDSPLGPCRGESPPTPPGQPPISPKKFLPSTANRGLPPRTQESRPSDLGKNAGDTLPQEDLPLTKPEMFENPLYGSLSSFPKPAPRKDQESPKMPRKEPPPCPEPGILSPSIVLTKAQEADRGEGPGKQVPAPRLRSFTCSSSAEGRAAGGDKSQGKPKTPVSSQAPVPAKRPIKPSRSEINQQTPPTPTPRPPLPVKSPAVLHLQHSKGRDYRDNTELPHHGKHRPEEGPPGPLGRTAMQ
# Assay: His-hSHIP1 activity, approach 2 (ratio of initial velocities IP4 25/IP4 250)
# Assay type: biochemical
# Parameters: key: +++: higher than reference or reference - 15%; ++: reference - 16% to reference - 30%; +: reference - 31% or lower
# Settings: ratio of initial velocities IP4 25/IP4 250 versus reference SHIP1 activator; asterisk in Table 2
# Procedure: Test compounds are dissolved in 95% ethanol to form stock solutions. Before screening, the stock solutions are diluted with Phosphatase Assay Buffer (20 mM Tris-HCL, 10 mM MgCl2 pH 7.5, 0.02% Tween 20) to form working assay solutions that contain 10% ethanol. The assay is carried out on 96-well microtiter plates using a modified procedure of that reported by Ong et al., Blood 110, 1942-1949, 2007 and Yang et al., Org Lett 7, 1073-1076, 2005, both of which references are incorporated herein by reference in their entirety.
# In the second approach, a master mix is prepared that contains […] (0.4-1.6 ng/μL final), 25 μL of the substrate, IP4 (25 or 250 μM final), and 50 μL of test compound in 3.3% ethanol ([…]). Control blanks are also prepared by replacing His-hSHIP1 enzyme, IP4, or test compounds with Phosphate Assay Buffer. […] Each reaction component is preincubated at 37° C. for 30 min before adding to a 96-well microtiter plate. The master mix is then incubated at 37° C. At time 0, 20, 25 and 30 min, 25 μL of the master mix is removed and transferred to a new 96-well microtiter plate, to which 100 μL of Biomol Green Reagent is added to stop the reaction. After incubating the mixture for 20 min at room temperature for color development, the absorbance is read with SpectraMax Plus 96-well plate reader at a wavelength of 650 nm. Phosphate released is plotted against time to calculate the initial velocities (i.e., slope of the graph) at each IP4 concentration. The initial velocities are baseline corrected and the ratio of initial velocities (IP425/IP4250) is calculated and used to rate the test compounds.
row,"Scoring, Approach 2 (Initial velocity Ratio)",SMILES
1,++,"CC(=O)N[C@@H]1C[C@H]2C(C)(C)CCC[C@]2(C)[C@@H](C(=O)c2cc(C)cc(O)c2)[C@@H]1C [Compound No. 139, N-[(2R,3S,4S,4aS,8aS)-4-[(3-hydroxy-5-methylphenyl)carbonyl]-3,4a,8,8-tetramethyl-decahydronaphthalen-2-yl]acetamide]"
2,++,"Cc1cc(O)cc(C(=O)[C@H]2[C@H](C)[C@H](NC(=N)N)C[C@H]3C(C)(C)CCC[C@]23C)c1 [Compound No. 175, 1-[(2R,3S,4S,4aS,8aS)-4-[(3-hydroxy-5-methylphenyl)carbonyl]-3,4a,8,8-tetramethyl-decahydronaphthalen-2-yl]guanidine]"
3,+++,"C[C@@H]1[C@H](NC(=N)N)C[C@H]2C(C)(C)CCC[C@]2(C)[C@H]1C(=O)c1cc(O)cc(O)c1 [Compound No. 178, 1-[(2R,3S,4S,4aS,8aS)-4-[(3,5-dihydroxyphenyl)carbonyl]-3,4a,8,8-tetramethyl-decahydronaphthalen-2-yl]guanidine]"
4,+,"C[C@@H]1[C@H](NS(C)(=O)=O)C[C@H]2C(C)(C)CCC[C@]2(C)[C@H]1C(=O)c1cc(O)cc(O)c1 [Compound No. 179, N-[(2R,3S,4S,4aS,8aS)-4-[(3,5-dihydroxyphenyl)carbonyl]-3,4a,8,8-tetramethyl-decahydronaphthalen-2-yl]methanesulfonamide]"

# The next lines start with the compound.
row,SMILES,"Scoring, Approach 2 (Initial velocity Ratio)"
1,"Cc1cc(O)cc(C(=O)[C@H]2[C@H](C)[C@H](NC(=O)Nc3cccnc3)C[C@H]3C(C)(C)CCC[C@]23C)c1 [Compound No. 138, 3-[(2R,3S,4S,4aS,8aS)-4-[(3-hydroxy-5-methylphenyl)carbonyl]-3,4a,8,8-tetramethyl-decahydronaphthalen-2-yl]-1-(pyridin-3-yl)urea]",++
2,"C=C1[C@H](C(=O)c2cc(OC)cc(OC)c2)[C@@]2(C)CCCC(C)(C)[C@@H]2C[C@H]1O [Compound No. 141, (2R,4R,4aS,8aS)-4-[(3,5-dimethoxyphenyl)carbonyl]-4a,8,8-trimethyl-3-methylidene-decahydronaphthalen-2-ol]",+
3,"COc1cc(OC)cc(C(=O)C2=C(C)[C@H](O)C[C@H]3C(C)(C)CCC[C@]23C)c1 [Compound No. 142, (2R,4aS,8aS)-4-[(3,5-dimethoxyphenyl)carbonyl]-3,4a,8,8-tetramethyl-1,2,4a,5,6,7,8,8a-octahydronaphthalen-2-ol]",++
4,"C[C@H]1CC[C@H]2C(C)(C)CCC[C@]2(C)[C@H]1CC(=O)Nc1cc(O)cc(O)c1 [Compound No. 149, 2-[(1S,2S,4aS,8aR)-2,5,5,8a-tetramethyl-decahydronaphthalen-1-yl]-N-(3,5-dihydroxyphenyl)acetamide]",++
5,"CC1(C)CCC[C@]2(C)[C@@H](Cc3cc(O)cc(O)c3)[C@@H](C(=O)O)CC[C@@H]12 [Compound No. 157, (1S,2S,4aS,8aR)-1-[(3,5-dihydroxyphenyl)methyl]-5,5,8a-trimethyl-decahydronaphthalene-2-carboxylic acid]",++
6,"COc1cc(OC)cc(S(=O)(=O)C[C@H]2C(C)C(O)C[C@H]3C(C)(C)CCC[C@]23C)c1 (stereo partly drawn) [Compound No. 173, (4S,4aS,8aS)-4-{[(3,5-dimethoxybenzene)sulfonyl]methyl}-3,4a,8,8-tetramethyl-decahydronaphthalen-2-ol]",+++
7,"Cc1cc(O)cc(C(=O)[C@H]2[C@H](C)[C@H](NS(C)(=O)=O)C[C@H]3C(C)(C)CCC[C@]23C)c1 [Compound No. 176, N-[(2R,3S,4S,4aS,8aS)-4-[(3-hydroxy-5-methylphenyl)carbonyl]-3,4a,8,8-tetramethyl-decahydronaphthalen-2-yl]methanesulfonamide]",++
8,"C[C@@H]1[C@H](NC(=O)CNS(=O)(=O)c2ccccc2C(=O)O)C[C@H]2C(C)(C)CCC[C@]2(C)[C@H]1C(=O)c1cc(O)cc(O)c1 [Compound No. 181, 2-[({[(2R,3S,4S,4aS,8aS)-4-[(3,5-dihydroxyphenyl)carbonyl]-3,4a,8,8-tetramethyl-decahydronaphthalen-2-yl]carbamoyl}methyl)sulfamoyl]benzoic acid]",+++
